Experiment [1] addresses T1, PRMT5 (Homo sapiens, UniProt O14744).
T1 construct: purchased Viva (custom protein)
Nature of the experiment: PRMT5 IC50 assay in the presence of SAM as cofactor. The class given is biochemical. Summed up:
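IC50 against PRMT5 determined with SAM as cofactor, with no cofactor, and with MTA as cofactor. Ki derived as IC50/1.5 for the SAM assay and IC50/13.5 for the MTA assay; SAM Ki to MTA Ki ratio also reported.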

The target of experiment [2] is T1, PRMT5. Nature of the experiment: PRMT5 IC50 assay with no cofactor. The class given is biochemical. The following applies: read-out: No Co-factor IC50. In short, it runs like this: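 Each compound is tested on PRMT5 in the presence of SAM, of MTA, and without any cofactor. Ki values are then back-calculated using fixed factors of 1.5 (SAM) and 13.5 (MTA), and the two Ki values are compared as a ratio.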

Experiment [3] addresses T1, PRMT5. Nature of the experiment: PRMT5 IC50 assay in the presence of MTA as cofactor. It counts as biochemical. The following applies: for IC50: PRMT5, MTA as cofactor; for SAM/MTA Ratio: ratio between Ki in the presence of SAM and Ki in the presence of MTA. In short, it runs like this:
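Potency against PRMT5 is compared across cofactor states, where IC50 equals Ki×1.5 with SAM present and Ki×13.5 with MTA present.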

For the next experiment, the system named is HAP1 MTAP-intact. Put plainly: SDMA in-cell western assay, HAP1 MTAP-intact cell line. It counts as cell-based. The following applies: Homo sapiens. In short, it runs like this: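 IC50 values come from SDMA in-cell western staining of HAP1 cells. The MTAP-intact line carries endogenous MTAP, while its MTAP-deleted counterpart lacks MTAP entirely. A selectivity ratio of at least 3 fold marks a compound as MTAP-selective.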

For the next experiment, the system named is HAP1 MTAP-deleted. Put plainly: SDMA in-cell western assay, HAP1 MTAP-deleted cell line. The class given is cell-based. The following applies: for IC50: Homo sapiens, HAP1 MTAP-deleted cell line; for MTAP Intact/Deleted Ratio: IC50 ratio HAP1 MTAP-intact / HAP1 MTAP-deleted. Summed up:
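Readout is cellular SDMA signal by in-cell western, with IC50 values derived from it. The cells are MTAP-null HAP1, matched to an isogenic MTAP-intact HAP1 line.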

T1 sequence (O14744 whole entry): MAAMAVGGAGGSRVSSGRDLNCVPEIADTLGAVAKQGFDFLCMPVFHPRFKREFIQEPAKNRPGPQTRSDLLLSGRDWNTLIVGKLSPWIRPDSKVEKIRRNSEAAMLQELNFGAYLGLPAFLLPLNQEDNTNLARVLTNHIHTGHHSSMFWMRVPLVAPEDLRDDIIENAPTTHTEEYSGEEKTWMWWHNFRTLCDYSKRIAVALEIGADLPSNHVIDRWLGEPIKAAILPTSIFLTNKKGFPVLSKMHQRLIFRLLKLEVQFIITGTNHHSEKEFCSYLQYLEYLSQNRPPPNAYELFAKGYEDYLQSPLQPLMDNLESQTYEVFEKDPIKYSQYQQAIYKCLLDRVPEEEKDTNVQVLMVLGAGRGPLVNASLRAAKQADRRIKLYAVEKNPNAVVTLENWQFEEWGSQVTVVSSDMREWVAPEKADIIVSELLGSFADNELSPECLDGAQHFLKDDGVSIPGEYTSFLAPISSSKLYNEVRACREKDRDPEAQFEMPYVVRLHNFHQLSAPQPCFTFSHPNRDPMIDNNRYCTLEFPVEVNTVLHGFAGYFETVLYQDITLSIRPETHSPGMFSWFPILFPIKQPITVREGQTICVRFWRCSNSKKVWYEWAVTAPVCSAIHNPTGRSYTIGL
T1 sequence (Q9BQA1 whole entry partner): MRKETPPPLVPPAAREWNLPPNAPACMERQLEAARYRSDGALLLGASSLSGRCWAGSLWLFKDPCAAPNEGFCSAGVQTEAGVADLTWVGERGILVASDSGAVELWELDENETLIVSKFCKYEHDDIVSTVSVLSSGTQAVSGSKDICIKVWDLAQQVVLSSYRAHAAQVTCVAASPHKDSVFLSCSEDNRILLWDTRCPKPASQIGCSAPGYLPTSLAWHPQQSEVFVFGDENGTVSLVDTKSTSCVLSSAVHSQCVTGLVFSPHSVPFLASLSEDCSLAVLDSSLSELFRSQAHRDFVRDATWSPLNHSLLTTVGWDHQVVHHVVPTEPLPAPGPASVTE

As a reminder, the IC50 is the point on the concentration scale where inhibition reaches its midpoint. On to `COCCN(C)c1nc(NC2COC2)cc(C(=O)NC[C@H](O)CN2CCc3c(ccc(OCc4ocnc4C)c3C)C2)n1` [Compound 398, N-[(2S)-2-hydroxy-3-{5-methyl-6-[(4-methyl-1,3-oxazol-5-yl)methoxy]-1,2,3,4-tetrahydroisoquinolin-2-yl}propyl]-2-[(2-methoxyethyl)(methyl)amino]-6-[(oxetan-3-yl)amino]pyrimidine-4-carboxamide], for which the IC50 is 50 to 500 nM at PRMT5 [1]; at least 5 µM at PRMT5 [2]; 50 to 500 nM at PRMT5 [3]; at least 10 µM in the experiment on HAP1 MTAP-intact; 1000 to 10000 nM with HAP1 MTAP-deleted. For the same compound, the “SAM/MTA Ratio” value at PRMT5 [3] is “A (a Ki ratio greater than or equal to 10 fold between the Ki in the presence of SAM and the Ki in the presence of MTA)”. In addition, the “MTAP Intact/Deleted Ratio” value in the experiment on HAP1 MTAP-deleted is “B* (an IC50 ratio greater than or equal to 3 fold but lower than 10 fold between the IC50 in the HAP1 MTAP-intact cell line and the HAP1 MTAP-deleted cell line)”.

On to `O=C(NC[C@H](O)CN1CCc2cc(OCc3cnco3)ccc2C1)c1ccnc(Nc2cccnc2)c1` [Compound 399, (S)—N-(2-hydroxy-3-(6-(oxazol-5-ylmethoxy)-3N-dihydroisoquinolin-2(1H)-yl)propyl)-2-(pyridin-3-ylamino)isonicotinamide], for which the IC50 on PRMT5 [1] was 500 to 5000 nM; on PRMT5 [2], at least 5 µM; on PRMT5 [3] it was 50 to 500 nM; in the experiment with HAP1 MTAP-intact, 1 to 10 µM; in the experiment with HAP1 MTAP-deleted, below 1000 nM. The “SAM/MTA Ratio” value on PRMT5 [3] was “A (a Ki ratio greater than or equal to 10 fold between the Ki in the presence of SAM and the Ki in the presence of MTA)”. For the same compound, in the experiment on HAP1 MTAP-deleted, the “MTAP Intact/Deleted Ratio” value is “B* (an IC50 ratio greater than or equal to 3 fold but lower than 10 fold between the IC50 in the HAP1 MTAP-intact cell line and the HAP1 MTAP-deleted cell line)”.

Take `Cc1ncoc1COc1ccc2c(c1)CCN(C[C@@H](O)CNC(=O)c1cc(NC3COC3)nc(N3CCN(C(=O)C4CC4)CC3)n1)C2` [Compound 400, 2-(4-cyclopropanecarbonylpiperazin-1-yl)-N-[(2S)-2-hydroxy-3-{6-[(4-methyl-1,3-oxazol-5-yl)methoxy]-1,2,3,4-tetrahydroisoquinolin-2-yl}propyl]-6-[(oxetan-3-yl)amino]pyrimidine-4-carboxamide]: the IC50 on PRMT5 [1] was 50 to 500 nM; on PRMT5 [2] it was 0.5 to 5 µM; on PRMT5 [3], 50 to 500 nM; in the experiment on HAP1 MTAP-intact, 1 to 10 µM; with HAP1 MTAP-deleted, below 1000 nM. Also, the “SAM/MTA Ratio” value at PRMT5 [3] is “A (a Ki ratio greater than or equal to 10 fold between the Ki in the presence of SAM and the Ki in the presence of MTA)”. Further, the “MTAP Intact/Deleted Ratio” value in the experiment on HAP1 MTAP-deleted was “B* (an IC50 ratio greater than or equal to 3 fold but lower than 10 fold between the IC50 in the HAP1 MTAP-intact cell line and the HAP1 MTAP-deleted cell line)”.

For `CC(=O)N1CCN(c2nc(NC3COC3)cc(C(=O)NC[C@H](O)CN3CCc4cc(OCc5ocnc5C)ccc4C3)n2)CC1` [Compound 401, 2-(4-acetylpiperazin-1-yl)-N-[(2S)-2-hydroxy-3-{6-[(4-methyl-E3-oxazol-5-yl)methoxy]-1,2,3,4-tetrahydroisoquinolin-2-yl}propyl]-6-[(oxetan-3-yl)amino]pyrimidine-4-carboxamide], the IC50 at PRMT5 [1] was 50 to 500 nM; at PRMT5 [2], 0.5 to 5 µM; on PRMT5 [3], 50 to 500 nM; with HAP1 MTAP-intact, at least 10 µM; with HAP1 MTAP-deleted, 1000 to 10000 nM. Further, at PRMT5 [3], the “SAM/MTA Ratio” value was “A (a Ki ratio greater than or equal to 10 fold between the Ki in the presence of SAM and the Ki in the presence of MTA)”. Further, the “MTAP Intact/Deleted Ratio” value in the experiment on HAP1 MTAP-deleted is “B* (an IC50 ratio greater than or equal to 3 fold but lower than 10 fold between the IC50 in the HAP1 MTAP-intact cell line and the HAP1 MTAP-deleted cell line)”.

Turning to `Cc1c(OCc2cnco2)ccc2c1CCN(C[C@@H](O)CNC(=O)c1ccnc(NC3CCN(C(=O)C(C)(C)C)CC3)c1)C2` [Compound 402, (S)—N-(2-hydroxy-3-(5-methyl-6-(oxazol-5-ylmethoxy)-3N-dihydroisoquinolin-2(1H)-yl)propyl)-2-((1-pivaloylpiperidin-4-yl)amino)isonicotinamide], the 50% inhibitory concentration (IC50) on PRMT5 [1] was 50 to 500 nM; on PRMT5 [2], 0.5 to 5 µM; at PRMT5 [3] it was 50 to 500 nM; in the experiment on HAP1 MTAP-intact, at least 10 µM; in the experiment with HAP1 MTAP-deleted, 1000 to 10000 nM. Also, at PRMT5 [3], the “SAM/MTA Ratio” value was “A (a Ki ratio greater than or equal to 10 fold between the Ki in the presence of SAM and the Ki in the presence of MTA)”. Besides, the “MTAP Intact/Deleted Ratio” value with HAP1 MTAP-deleted is “B* (an IC50 ratio greater than or equal to 3 fold but lower than 10 fold between the IC50 in the HAP1 MTAP-intact cell line and the HAP1 MTAP-deleted cell line)”.

Consider `Cc1ncoc1COc1ccc2c(c1)CCN(C[C@@H](O)CNC(=O)c1cc(NC3CCC3)nc(N3CCN(C(C)(C)C)CC3)c1)C2` [Compound 403, 2-(4-tert-butylpiperazin-1-yl)-6-(cyclobutylamino)-N-[(2S)-2-hydroxy-3-{6-[(4-methyl-1,3-oxazol-5-yl)methoxy]-1,2,3,4-tetrahydroisoquinolin-2-yl}propyl]pyridine-4-carboxamide], for which the IC50 on PRMT5 [1] is 50 to 500 nM; on PRMT5 [2] it was 0.5 to 5 µM; at PRMT5 [3] it was 50 to 500 nM; with HAP1 MTAP-intact, below 1 µM; in the experiment on HAP1 MTAP-deleted, at least 10000 nM. Also, the “SAM/MTA Ratio” value on PRMT5 [3] is “A (a Ki ratio greater than or equal to 10 fold between the Ki in the presence of SAM and the Ki in the presence of MTA)”. Also, the “MTAP Intact/Deleted Ratio” value in the experiment on HAP1 MTAP-deleted is “C* (an IC50 ratio of less than 3 fold between the IC50 in the HAP1 MTAP-intact cell line and the HAP1 MTAP-deleted cell line)”.

As to `O=C(NC[C@H](O)CN1CCc2c(ccc(OCc3cnco3)c2Br)C1)c1ccnc(NC2CCCC2)c1` [Compound 404, (S)—N-(3-(5-bromo-6-(oxazol-5-ylmethoxy)-3N-dihydroisoquinolin-2(1H)-yl)-2-hydroxypropyl)-2-(cyclopentylamino)isonicotinamide], the IC50 is 50 to 500 nM at PRMT5 [1]; at least 5 µM at PRMT5 [2]; 50 to 500 nM on PRMT5 [3]; at least 10 µM in the experiment with HAP1 MTAP-intact; at least 10000 nM in the experiment with HAP1 MTAP-deleted. Also, the “SAM/MTA Ratio” value on PRMT5 [3] is “A (a Ki ratio greater than or equal to 10 fold between the Ki in the presence of SAM and the Ki in the presence of MTA)”. For the same compound, the “MTAP Intact/Deleted Ratio” value with HAP1 MTAP-deleted was “C* (an IC50 ratio of less than 3 fold between the IC50 in the HAP1 MTAP-intact cell line and the HAP1 MTAP-deleted cell line)”.

In the case of `Cc1ncoc1COc1ccc2c(c1)CCN(C[C@@H](O)CNC(=O)c1cc(NC3COC3)nc(N3CCCCC3)n1)C2` [Compound 405, N-[(2S)-2-hydroxy-3-{6-[(4-methyl-1,3-oxazol-5-yl)methoxy]-1,2,3,4-tetrahydroisoquinolin-2-yl}propyl]-6-[(oxetan-3-yl)amino]-2-(piperidin-1-yl)pyrimidine-4-carboxamide], the IC50 on PRMT5 [1] was 50 to 500 nM; on PRMT5 [2], 0.5 to 5 µM; on PRMT5 [3], 50 to 500 nM; in the experiment on HAP1 MTAP-intact it was below 1 µM; in the experiment with HAP1 MTAP-deleted it was below 1000 nM. Besides, the “SAM/MTA Ratio” value on PRMT5 [3] is “A (a Ki ratio greater than or equal to 10 fold between the Ki in the presence of SAM and the Ki in the presence of MTA)”. Besides, the “MTAP Intact/Deleted Ratio” value with HAP1 MTAP-deleted was “B* (an IC50 ratio greater than or equal to 3 fold but lower than 10 fold between the IC50 in the HAP1 MTAP-intact cell line and the HAP1 MTAP-deleted cell line)”.

As for `Cc1ncoc1COc1ccc2c(c1)CCN(C[C@@H](O)CNC(=O)c1cc(NC3CCC3)nc(OCCN(C)C)c1)C2` [Compound 406, 2-(cyclobutylamino)-6-[2-(dimethylamino)ethoxy]-N-[(2S)-2-hydroxy-3-{6-[(4-methyl-1,3-oxazol-5-yl)methoxy]-1,2,3,4-tetrahydroisoquinolin-2-yl}propyl]pyridine-4-carboxamide], the IC50 is 50 to 500 nM at PRMT5 [1]; 0.5 to 5 µM at PRMT5 [2]; below 50 nM at PRMT5 [3]; below 1 µM with HAP1 MTAP-intact; below 1000 nM in the experiment on HAP1 MTAP-deleted. Besides, on PRMT5 [3], the “SAM/MTA Ratio” value is “A (a Ki ratio greater than or equal to 10 fold between the Ki in the presence of SAM and the Ki in the presence of MTA)”. In the experiment with HAP1 MTAP-deleted, the “MTAP Intact/Deleted Ratio” value was “B* (an IC50 ratio greater than or equal to 3 fold but lower than 10 fold between the IC50 in the HAP1 MTAP-intact cell line and the HAP1 MTAP-deleted cell line)”.

Consider `O=C(NC[C@H](O)CN1CCc2cc(OCc3cnco3)ccc2C1)c1ccnc(NC2CCCC2)c1` [Compound 407, (S)-2-(cxclopentylamino)-N-(2-hydroxy-3-(6-(oxazol-5-ylmethoxy)-3N-dihydroisoquinolin-2(1H)-yl)propyl)isonicotinamide], for which the concentration for half-maximal inhibition (IC50) is 50 to 500 nM at PRMT5 [1]; at least 5 µM at PRMT5 [2]; 50 to 500 nM on PRMT5 [3]; below 1 µM in the experiment on HAP1 MTAP-intact; below 1000 nM with HAP1 MTAP-deleted. For the same compound, the “SAM/MTA Ratio” value on PRMT5 [3] was “A (a Ki ratio greater than or equal to 10 fold between the Ki in the presence of SAM and the Ki in the presence of MTA)”. Besides, the “MTAP Intact/Deleted Ratio” value in the experiment with HAP1 MTAP-deleted was “B* (an IC50 ratio greater than or equal to 3 fold but lower than 10 fold between the IC50 in the HAP1 MTAP-intact cell line and the HAP1 MTAP-deleted cell line)”.

Source of the values: patent US11986471B2, “Compounds and methods of use” (Tango Therapeutics, Inc., priority 2018, dated 2024).
